Data: patent US10085442B2, “Agrochemical formulation” (SYNGENTA PARTICIPATIONS AG, priority 2014, dated 2018)

Experiment: Rainfastness of cyantraniliprole on soya leaf (Example 10)
Format: physicochemical, Glycine Max (Williams variety)
Settings: rain 10 mm/hour for one hour, 0.5 g of water replaced by copolymer
Procedure: A range of substrates can be used in this test with the chosen material in this example being a soya leaf. Herein the soya, Glycine Max (Williams variety), was grown for 4 weeks in 4 inch pots with the top 2 tri-foliates used in the study. The leaves were mounted using double sided tape to flat tiles (30 cm by 30 cm) at an even spacing of 6 leaves per tile.
A deposition solution was then prepared at the concentration which would be used under commercial application conditions. In this case 0.12 g of cyantraniliprole technical was added to […] water for the control and the effect of the styrene malemide co-polymer determined by creating a similar sample with 0.5 g of the water replaced by styrene malemide co-polymer. […]
The quantities of cyantraniliprole in the acetonitrile solutions determined by mass spectrometry using a Waters Acquity UPLC and Thermo TSQ Quantum Ultra Triple Quadrupole MS Instrument or just LC/MS/MS. • Column: • Phase Ace C18 • Length (mm) 50 • Internal diameter (mm) 3.0 • Particle Size (μm) 3 • and the % active ingredient remaining after rainfall determined by dividing the quantity of cyantraniliprole on each leaf after rainfall by that before rainfall. • Cyantraniliprole: 2% cyantraniliprole remained on the leaves. • Cyantraniliprole+styrene malemide copolymer: 45% cyantraniliprole remained on the leaves.

In the case of CNC(=O)c1cc(C#N)cc(C)c1NC(=O)c1cc(Br)nn1-c1ncccc1Cl [Cyantraniliprole, cyantraniliprole], the “% cyantraniliprole remained on the leaves after rainfall” value is reported as 2%.
